Columns and labels:
[1] = system: T-ALL and B-ALL leukemic cell lines; assay: ALL cell lines: AlamarBlue viability and Akt phosphorylation; format: cell-based; details: for cellular viability in ALL cell lines: 48 hours
Experimental: Viability assays of cell lines were performed using the AlamarBlue assay (Invitrogen). Cells (1×10^6 per well) in a volume of 100 μL were placed in a 96-well flat-bottom plate and the compound of formula I (100 μL per well at 2× final concentration) or medium alone was added to the plates. All were performed in quadruplicate. Cells were incubated for fixed times (48 hours). After the incubation, 10 μL AlamarBlue® was added to each well. Cells were incubated for 4 hours and the optical density at 530-560 nm was obtained using a SpectraMax® M5 plate reader 2001. Cell viability was expressed as a percentage of absorption between treated cells/control sample.

[2] = system: T47D and HS-578T cell lines; assay: Proliferation of breast cancer cell lines (AlamarBlue); format: cell-based; details: 48 hrs and 72 hrs
Experimental: T47D and HS-578T cell lines were grown in the presence of serum plus the indicated concentrations of the compound of formula I. Proliferation was measured in triplicate wells by AlamarBlue® assay (Invitrogen) 96-well plates.

[3] = system: IGROV-1 and OVCAR-3 cell lines; assay: Proliferation of ovarian cancer cell lines (AlamarBlue); format: cell-based; details: IGROV-1, OVCAR-3, 48 hrs and 72 hrs
Experimental: IGROV-1 and OVCAR-3 cell lines were grown in the presence of serum plus the indicated concentrations of the compound of formula I. Proliferation was measured in triplicate wells by AlamarBlue assay (Invitrogen) 96-well plates.

DLBCL cell lines = assay: pAKT in DLBCL cell lines; format: cell-based
CLL = assay: ALC and lymphadenopathy in a patient with CLL; format: in vivo, human; details: 1 cycle (28 days) oral
Experimental: This example provides data relating to the concentration of absolute lymphocyte count (ALC) in the blood of a patient with CLL after 1 cycle (28 days) of treatment with oral administration of the compound of formula I. The blood ALC concentration was measured over a period of 4 weeks after completion of one cycle of treatment. A 55% decrease in lymphocytosis and a 38% decrease in lymphadenopathy as a result of treatment were observed. A marked decrease in ALC concentration is observed between week 1 and week 2, FIG. 13.

INA-6 cells = assay: Cleavage of caspases and PARP in INA-6 cells (western blot); format: cell-based, human; details: INA-6, 0-5 μM, 120 h
Excerpt: Whole-cell lysates were subjected to sodium dodecyl sulfate-polyacrylamide gel electrophoresis (SDS-PAGE) separation, transferred to Pure Nitrocellulose membranes (Bio-Rad Laboratories, Hercules, Calif.), and immunoblotted with anti-AKT, phospho(p)-AKT (Ser473, Thr 308), ERK1/2, P-ERK1/2, P-PDK1, STAT, P-STAT, P-FKRHL, P-70S6K, LC3, and PI3K/p110α Abs (Cell Signaling Danvers, Mass.); anti-p110β, PI3K/p110δ, Glyceraldehyde 3-phosphate dehydrogenase (GAPDH), α-tubulin, and actin Abs (Santa Cruz Biotechnology, CA); and anti-p110γ Ab (Alexis, San Diego, Calif.): and anti-LC3 Ab (Abgent, San Diego, Calif.).
Total cell lysates were subjected to immunoblotting using anti-caspase-3, -8, -9, PARP, and α-tubulin Abs. FL indicates full-length protein, and CL indicates cleaved protein.

[4] = system: primary MCL cells and MCL cell lines; assay: PI3K signaling in primary MCL cells and MCL cell lines; format: cell-based, human
[5] = system: previously treated B-cell malignancies (iNHL, CLL); assay: Clinical study, combination with rituximab or bendamustine, 49 patients (Example 42); details: human, in vivo
Excerpt: 49 patients were enrolled in the study, including 27 with iNHL and 22 with CLL. At the baseline, patients had adverse prognostic characteristics, including older age, bulky adenopathy, and refractory disease. All patients had received ≧1 prior treatment regimen and some had received as many 9 prior regimens. Prior treatment included rituximab, alkylating agents and/or fludarabine; the majority of patients with iNHL had been treated with prior anthracycline-containing therapy. Follow-up was early in many patients, with durations of therapy ranging from 1 to 12 cycles.
All patients received the compound of formula I, either 100 mg orally twice per day (BID) or 150 mg orally twice per day (BID) for as long as the patient was benefiting. Patients also received either rituximab 375 mg/m^2 administered weekly for 8 weeks, starting on Day 1 of Cycle 1, or bendamustine 90 mg/m^2 administered on Days 1 and 2 of each cycle for 6 cycles. Tumor response was evaluated according to standard criteria.

[6] = system: CD19+ cells from CLL patients; assay: mRNA expression in CD19+ CLL cells (RT-PCR); format: cell-based, human; details: 0.5 μM lenalidomide and/or 10 μM compound, 48 hours
Experimental: RNA was extracted using TRIzol reagent (Invitrogen) and cDNA was prepared using a SuperScript First-Strand Synthesis System (Invitrogen). Real-Time PCR was performed using pre-designed TaqMan® Gene Expression Assays and ABI Prism 7700 sequence detection system (Applied Biosystems, Foster City, Calif.).
RNA was extracted and converted to cDNA and RT-PCR analysis was done to determine quantities of CD40, CD86 and CD154 mRNA.
Lastly, lenalidomide treatment of CLL cells in culture was tested to determine whether it could promote tumor cell production of vascular endothelial growth factor (VEGF) and basic fibroblast growth factor (b-FGF). […] RNA was extracted and converted to cDNA and RT-PCR analysis was done to determine quantities of bFGF.
RNA was extracted and converted to cDNA and RT-PCR analysis was done to determine quantities of VEGF

[7] = system: AKT (ser473), GSK3β (ser9); assay: AKT and GSK3β phosphorylation in CD19+ CLL cells with lenalidomide (immunoblot); details: 0.5 μM lenalidomide and/or 1 or 10 μM compound, 48 hours
Experimental: Immunoblots were performed.
AKT phosphorylation at ser473 was assessed by immunoblot.
GSK3β phosphorylation at ser9 was assessed by immunoblot. Results are shown from one of four experiments.
CD19+ cells from CLL patients (N=3) were transfected with siRNA targeted to PI3K-δ, PI3K-γ or a nonsense and then incubated with or without 0.5 μM lenalidomide for 48 hours. AKT phosphorylation at ser473 was assessed by immunoblot. Results are shown from one of three experiments.

[8] = listed as compound of formula I

Which results are given for `CC[C@H](Nc1ncnc2[nH]cnc12)c1nc2cccc(F)c2c(=O)n1-c1ccccc1` [Compound I, 5-fluoro-3-phenyl-2-[1-(9H-purin-6-ylamino)-propyl]-3H-quinazolin-4-one]?
Akt phosphorylation in ALL cell lines [1]: reduction in Akt phosphorylation; cellular viability in ALL cell lines [1]: significant reduction in cell viability in all six cell lines; cellular viability in ALL cell lines ([1]; listed as compound I): substantial reduction in cellular viability; proliferation of breast cancer cell lines [2]: reduces cellular proliferation of two breast cancer cell lines; proliferation of breast cancer cell lines [2, 8]: inhibits proliferation of breast cancer cell lines; proliferation of ovarian cancer cell lines [3]: cytotoxic to two ovarian cancer cell lines; proliferation of ovarian cancer cell lines [3, 8]: inhibits proliferation of ovarian cancer cell lines; pAKT levels in DLBCL cell lines (DLBCL cell lines): reduces pAKT levels in several DLBCL cell lines; decrease in lymphadenopathy (CLL): 38%; decrease in lymphocytosis (CLL): 55%; cleavage of caspases and PARP (INA-6 cells): Significantly increased cleavage of caspase-8, caspase-9, caspase-3, and PARP; pAkt in MCL lines exposed to survival factors [4]: significant reduction of pAkt; constitutive PI3K signaling in primary MCL cells ([4]; two patients, 0.1 μM or 1 μM): block constitutive PI3K signaling in primary MCL cells of two patients in a dose dependent manner; dose-limiting toxicities [5]: No dose-limiting toxicities related to the compound of formula I were observed; VEGF transcription ([6]; N=13): reversible by treatment with the compound of formula I; b-FGF transcription ([6]; N=15): prevented this up-regulation; mRNA of CD40, CD86, CD154 and CD80 ([6]; N=15, p<0.009): prevent the increase in mRNA of CD40, CD86, CD154 and CD80 promoted by lenalidomide; AKT activation / phosphorylation (ser473) with lenalidomide [7]: resulted in prevention of PI3K activity; GSK3β phosphorylation (ser9) ([7]; N=4): preventable by co-treatment with the compound of formula I

Reference: patent US20130064812A1, “COMBINATION THERAPIES FOR HEMATOLOGIC MALIGNANCIES” (Gilead Calistoga LLC, priority 2011, published 2013)
